pIC50: −log10 of the molar value. Read-outs that look alike come from different tables or passages of the source.
Key:
[1] = biological target: human Bruton's Tyrosine Kinase (Btk) (Homo sapiens (Human), UniProt Q06187); assay: Recombinant Human Bruton's Tyrosine Kinase (Btk) Inhibition Assay (HTRF KinEASE-TK); type: biochemical; settings: 20 ng/ml rhBtk, 77 μM ATP (KM), 1 μM TK-Biotin substrate, 90 min; read-out: hBTK IC50
mouse splenocytes = assay: Inhibition of B Cell Activation as Measured by CD69 Expression in Mouse Splenocytes; type: cell-based; settings: Splenocyte; for pIC50: C57/BL6 splenocytes, 3 ug/mL goat anti-mouse IgM, 18-20 hrs, CD69+ve cells within CD19, read-out: Mouse spleenocyte IC50
How it was run: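 Total mouse splenocytes pre-incubated with compounds (half-log dilutions; DMSO 200× stocks from 2 mM) 30 min at 37 °C, then stimulated with 3 ug/mL anti-mouse IgM for 18-20 hrs. CD69+ cells within CD19+ B cells quantified by flow cytometry; IC50 from variable-slope sigmoid dose-response fit.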

Chain of human Bruton's Tyrosine Kinase (Btk) (Q06187 whole entry): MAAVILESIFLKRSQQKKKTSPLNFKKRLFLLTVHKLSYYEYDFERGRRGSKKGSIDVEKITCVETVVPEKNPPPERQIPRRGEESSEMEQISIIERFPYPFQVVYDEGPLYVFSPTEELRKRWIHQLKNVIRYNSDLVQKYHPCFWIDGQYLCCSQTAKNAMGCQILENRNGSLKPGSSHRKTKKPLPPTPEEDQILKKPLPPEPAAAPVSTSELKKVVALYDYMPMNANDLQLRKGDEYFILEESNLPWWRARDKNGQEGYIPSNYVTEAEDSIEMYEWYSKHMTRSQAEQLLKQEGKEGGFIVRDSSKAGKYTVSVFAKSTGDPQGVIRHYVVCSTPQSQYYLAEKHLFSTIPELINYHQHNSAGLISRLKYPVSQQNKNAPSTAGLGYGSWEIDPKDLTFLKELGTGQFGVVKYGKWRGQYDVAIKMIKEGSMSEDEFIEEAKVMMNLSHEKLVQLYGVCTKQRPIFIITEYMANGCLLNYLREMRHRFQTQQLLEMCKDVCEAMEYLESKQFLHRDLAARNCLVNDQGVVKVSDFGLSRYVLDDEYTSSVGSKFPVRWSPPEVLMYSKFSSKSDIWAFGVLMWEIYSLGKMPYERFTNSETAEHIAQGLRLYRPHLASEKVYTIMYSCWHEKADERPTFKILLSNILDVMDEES

pIC50 [1]	pIC50 (mouse splenocytes)	SMILES	IC50 (mouse splenocytes; Mus musculus, read-out: Mouse spleenocyte IC50 (nM))
8.85	7.12	CC(C)(O)CN1CC=C(c2cc3c(-c4cccc(N5CCOc6cc(C7CC7)cc(F)c6C5=O)c4CO)ccnc3[nH]2)CC1 [Example P-23, 8-cyclopropyl-6-fluoro-4-[2-(hydroxymethyl)-3-[2-[1-(2-hydroxy-2-methyl-propyl)-3,6-dihydro-2H-pyridin-4-yl]-1H-pyrrolo[2,3-b]pyridin-4-yl]phenyl]-2,3-dihydro-1,4-benzoxazepin-5-one]	
8.44	7.96	CC(=O)N1CC=C(c2cc3c(-c4cccc(N5CCOc6cc(C7CC7)cc(F)c6C5=O)c4CO)ccnc3[nH]2)CC1 [Example P-24, 4-[3-[2-(1-acetyl-3,6-dihydro-2H-pyridin-4-yl)-1H-pyrrolo[2,3-b]pyridin-4-yl]-2-(hydroxymethyl)phenyl]-8-cyclopropyl-6-fluoro-2,3-dihydro-1,4-benzoxazepin-5-one]	
8.47	6.79	O=C1c2c(F)cc(C3CC3)cc2OCCN1c1cccc(-c2ccnc3[nH]c(C4=CCN(C5CCOCC5)CC4)cc23)c1CO [Example P-26, 8-cyclopropyl-6-fluoro-4-[2-(hydroxymethyl)-3-[2-(1-tetrahydropyran-4-yl-3,6-dihydro-2H-pyridin-4-yl)-1H-pyrrolo[2,3-b]pyridin-4-yl]phenyl]-2,3-dihydro-1,4-benzoxazepin-5-one]	
8.92	7.30	N#CCC(=O)N1CC=C(c2cc3c(-c4cccc(N5CCOc6cc(C7CC7)cc(F)c6C5=O)c4CO)ccnc3[nH]2)CC1 [Example P-27, 3-[4-[4-[3-(8-cyclopropyl-6-fluoro-5-oxo-2,3-dihydro-1,4-benzoxazepin-4-yl)-2-(hydroxymethyl)phenyl]-1H-pyrrolo[2,3-b]pyridin-2-yl]-3,6-dihydro-2H-pyridin-1-yl]-3-oxo-propanenitrile]	
8.89	8.10	CC(O)C(=O)N1CC=C(c2cc3c(-c4cccc(N5CCOc6cc(C7CC7)cc(F)c6C5=O)c4CO)ccnc3[nH]2)CC1 (stereo not drawn) [Example P-29, 8-cyclopropyl-6-fluoro-4-[2-(hydroxymethyl)-3-[2-[1-(2-hydroxypropanoyl)-3,6-dihydro-2H-pyridin-4-yl]-1H-pyrrolo[2,3-b]pyridin-4-yl]phenyl]-2,3-dihydro-1,4-benzoxazepin-5-one]	
9.00	7.96	O=C(CO)N1CC=C(c2cc3c(-c4cccc(N5CCOc6cc(C7CC7)cc(F)c6C5=O)c4CO)ccnc3[nH]2)CC1 [Example P-30, 8-cyclopropyl-6-fluoro-4-[3-[2-[1-(2-hydroxyacetyl)-3,6-dihydro-2H-pyridin-4-yl]-1H-pyrrolo[2,3-b]pyridin-4-yl]-2-(hydroxymethyl)phenyl]-2,3-dihydro-1,4-benzoxazepin-5-one]	
8.28	7.28	NC(=O)CN1CC=C(c2cc3c(-c4cccc(N5CCOc6cc(C7CC7)cc(F)c6C5=O)c4CO)ccnc3[nH]2)CC1 [Example P-31, 2-[4-[4-[3-(8-cyclopropyl-6-fluoro-5-oxo-2,3-dihydro-1,4-benzoxazepin-4-yl)-2-(hydroxymethyl)phenyl]-1H-pyrrolo[2,3-b]pyridin-2-yl]-3,6-dihydro-2H-pyridin-1-yl]acetamide]	
8.66	7.12	CC(=O)N1CC(N2CC=C(c3cc4c(-c5cccc(N6CCOc7cc(C8CC8)cc(F)c7C6=O)c5CO)ccnc4[nH]3)CC2)C1 [Example R-1, 4-[3-[2-[1-(1-acetylazetidin-3-yl)-3,6-dihydro-2H-pyridin-4-yl]-1H-pyrrolo[2,3-b]pyridin-4-yl]-2-(hydroxymethyl)phenyl]-8-cyclopropyl-6-fluoro-2,3-dihydro-1,4-benzoxazepin-5-one]	
8.82	7.68	CCN1CC(N2CC=C(c3cc4c(-c5cccc(N6CCOc7cc(C8CC8)cc(F)c7C6=O)c5CO)ccnc4[nH]3)CC2)C1 [Example R-2, 8-cyclopropyl-4-[3-[2-[1-(1-ethylazetidin-3-yl)-3,6-dihydro-2H-pyridin-4-yl]-1H-pyrrolo[2,3-b]pyridin-4-yl]-2-(hydroxymethyl)phenyl]-6-fluoro-2,3-dihydro-1,4-benzoxazepin-5-one]	
7.66	7.07	CCN1CC=C(c2cc3c(-c4cccc(N5CCOc6cc(C7CC7)cc(F)c6C5=O)c4CO)ccnc3[nH]2)CC1 [Example R-3, 8-cyclopropyl-4-[3-[2-(1-ethyl-3,6-dihydro-2H-pyridin-4-yl)-1H-pyrrolo[2,3-b]pyridin-4-yl]-2-(hydroxymethyl)phenyl]-6-fluoro-2,3-dihydro-1,4-benzoxazepin-5-one]	
8.80	7.15	CN1CC(N2CC=C(c3cc4c(-c5cccc(N6CCOc7cc(C8CC8)cc(F)c7C6=O)c5CO)ccnc4[nH]3)CC2)C1 [Example R-4, 8-cyclopropyl-6-fluoro-4-[2-(hydroxymethyl)-3-[2-[1-(1-methylazetidin-3-yl)-3,6-dihydro-2H-pyridin-4-yl]-1H-pyrrolo[2,3-b]pyridin-4-yl]phenyl]-2,3-dihydro-1,4-benzoxazepin-5-one]	
9.12	7.29	CCN1CC(C(=O)N2CC=C(c3cc4c(-c5cccc(N6CCOc7cc(C8CC8)cc(F)c7C6=O)c5CO)ccnc4[nH]3)CC2)C1 [Example R-5, 8-cyclopropyl-4-[3-[2-[1-(1-ethylazetidine-3-carbonyl)-3,6-dihydro-2H-pyridin-4-yl]-1H-pyrrolo[2,3-b]pyridin-4-yl]-2-(hydroxymethyl)phenyl]-6-fluoro-2,3-dihydro-1,4-benzoxazepin-5-one]	
8.40	6.89	C=CC(=O)N1CCCC(n2cc(-c3cc4c(-c5cccc(N6CCOc7cc(C8CC8)ccc7C6=O)c5CO)ncnc4[nH]3)cn2)C1 (stereo not drawn) [Example S-1, 8-cyclopropyl-4-[2-(hydroxymethyl)-3-[6-[1-(1-prop-2-enoyl-3-piperidyl)pyrazol-4-yl]-7H-pyrrolo[2,3-d]pyrimidin-4-yl]phenyl]-2,3-dihydro-1,4-benzoxazepin-5-one]	
7.92	6.90	N#CCN1CC(n2cc(-c3cc4c(-c5cccc(N6CCOc7cc(C8CC8)ccc7C6=O)c5CO)ccnc4[nH]3)cn2)C1 [Example S-2, 2-[3-[4-[4-[3-(8-cyclopropyl-5-oxo-2,3-dihydro-1,4-benzoxazepin-4-yl)-2-(hydroxymethyl)phenyl]-1H-pyrrolo[2,3-b]pyridin-2-yl]pyrazol-1-yl]azetidin-1-yl]acetonitrile]	

SMILES	pIC50 [1]	pIC50 (mouse splenocytes)	IC50 (mouse splenocytes; Mus musculus, read-out: Mouse spleenocyte IC50 (nM))
O=C(CN1CCC1)N1CC=C(c2cc3c(-c4cccc(N5CCOc6cc(C7CC7)cc(F)c6C5=O)c4CO)ccnc3[nH]2)CC1 [Example P-28, 4-[3-[2-[1-[2-(azetidin-1-yl)acetyl]-3,6-dihydro-2H-pyridin-4-yl]-1H-pyrrolo[2,3-b]pyridin-4-yl]-2-(hydroxymethyl)phenyl]-8-cyclopropyl-6-fluoro-2,3-dihydro-1,4-benzoxazepin-5-one]	8.51		63 nM

From patent US9233983B2, “Substituted hetero-bicyclic compounds, compositions and medicinal applications thereof” (ADVINUS THERAPEUTICS LIMITED, priority 2012, dated 2016)
